Assay results: patent US20260274922A1, “SYNTHETIC ESTROGEN RECEPTOR (ER)-DERIVED PEPTIDE” (THE TEXAS A&M UNIVERSITY SYSTEM, priority 2023, published 2026)
Where no end group is shown, it is not given here. The star is where a group is joined. FITC = O=C1OC2(c3ccc(O)cc3Oc3cc(O)ccc32)c2ccc(NC(=S)*)cc21

Test system: diet-induced obesity (DIO) mice
Type: in vivo, mouse
Experimental: Obese mouse models and AF1 peptide treatment. For the high-fat diet (HFD)-induced obese mouse model, the 6-8-week-old male mice were fed with HFD (HFD; 60% kcal from fat, D12492; Research diet, New Brunswick, NJ) for 11 weeks. Then mice received 5 mg/kg body weight control or AF1 peptide through retro orbital injection (twice per week; 5 weeks). For genetic obesity mouse model, the 8-week-old db/db mice were administered with 5 mg/kg body weight control or AF1 peptide through retro orbital injection (twice per week; 5 weeks). Glucose tolerance and insulin tolerance tests were performed in the fourth and fifth week after treatment, respectively. Body composition was measured using EchoMRI™ one day before sacrificing the mice.
Glucose and insulin tolerance tests. For glucose tolerance tests, mice were fasted for 16 h and intraperitoneally (i.p.) injected with dextrose (1 g/kg body weight for mice fed with regular diet; 0.5 g/kg body weight for db/db mice or mice fed with HFD). For insulin tolerance tests, mice were fasted for 6 h and i.p. injected with insulin solution (1 U/kg body weight for male mice; 0.75 U/kg body weight for female mice). Blood glucose levels were measured using glucometer at indicated time points.
RNA extraction and quantitative real-time PCR. Total RNA was extracted from livers or primary hepatocytes using TRIzol (Invitrogen, Thermo Fisher Scientific), purified with chloroform, 80% ethanol, isopropanol, and RNA column, eluted with RNase free water, and reverse transcribed into cDNA using iScript Reverse Transcription Supermix (Bio-Rad, Hercules, CA). Quantitative real-time PCR (qPCR) was conducted using SsoAdvanced Universal SYBR Green Supermix (Bio-Rad, Hercules, CA) on CFX384 real-time PCR detection system (Bio-Rad, Hercules, CA). Q-PCR started with 95° C. incubation for 3 min, followed by 39 cycles of 95° C. for 5 s and 60° C. for 30 s. The threshold cycle (CT) values were obtained and used to calculate the relative transcriptional level of target genes by 2^−ΔΔCT method with Cyclophilin (Cyp) as an internal control. […].
Hematoxylin and eosin staining and Oil Red O staining. Livers were embedded into paraffin after being fixed by PFA, and then cut into 5 μm sections. After deparaffinization and hydration, liver sections were stained with hematoxylin for 5 min. After differentiation by 1% acid alcohol, liver sections were stained with 1% eosin for 3 min. Finally, liver sections were dehydrated and mounted with mounting media. For Oil Red O staining, liver frozen sections were prepared and fixed in 10% neutral buffered formalin for 10 min after air dry for 1 h. Liver sections were stained in Oil Red O working solution for 15 min after a quick dip in 60% isopropanol. Liver sections were then stained with hematoxylin for 3 min and covered with aqueous mounting gel. Liver sections were observed using slide scanner (Leica).
Co-immunoprecipitation and Western blotting analysis. […] Protein bands were detected using a ChemiDoc image system.
Serum lipid profile analysis. Serum triglyceride, AST, ALT, cholesterol, LDL, HDL, NEFA, and ALP were measured using DxC 700 AU Chemistry Analyzer (Beckman Coulter).
Serum insulin and liver triglyceride analysis. Serum insulin and triglyceride levels were measured by using mouse insulin ELISA kit (Mercodia) and triglyceride assay kit (Abcam), respectively.

[1] = DIO mice, 5 mg/kg twice per week, 5 weeks
[2] = DIO mice, 5 mg/kg twice per week, 5 weeks, vs CNTR

Sequence: YGRKKRRQRRRTKASGMALLHEPLNRPQLKIPLERDSSKPAVYNY ({FITC}-YGRKKRRQRRRTKASGMALLHEPLNRPQLKIPLERDSSKPAVYNY) [AF1 peptide]
- decrease in serum NEFA (DIO mice): 21%
- decrease in serum cholesterol (DIO mice): 8%
- decrease in serum triglyceride (DIO mice): 21%
- glucose tolerance (DIO mice): significantly improved
- insulin sensitivity (DIO mice): significantly improved
- serum HDL (DIO mice): decreases
- serum LDL (DIO mice): decreases
- serum insulin (DIO mice): not changed
- overnight fasting blood glucose [1]: 85.4 ± 0.2 mg/dL
- random feeding blood glucose [1]: 154.2 ± 4.7 mg/dL
- decrease in overnight fasting blood glucose [2]: 20%
- decrease in random feeding blood glucose [2]: 12%
- liver fat accumulation (DIO mice, H&E staining): ameliorated
- decrease in pIRS1-302 (DIO mice, liver): 32%
- increase in IRS1 (DIO mice, liver): 49%
- increase in pAKT-308 (DIO mice, liver): 51%
- increase in pAKT-S473 (DIO mice, liver): 100%
- mRNA expression of FAO gene (Hadha) (DIO mice, liver, q-PCR): increased
- mRNA expression of gluconeogenic gene (Pck1) (DIO mice, liver, q-PCR): significantly decreased
- mRNA expression of inflammatory cytokine (Il6) (DIO mice, liver, q-PCR): significantly decreased
- mRNA expression of lipogenic gene (Fasn) (DIO mice, liver, q-PCR): significantly decreased
- serum ALP (mouse, in vivo): not changed
- serum ALT (mouse, in vivo): not changed
- serum AST (mouse, in vivo): not changed
